Laboratory results as given in PubChem BioAssay (NCI).
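Five concentrations, 48 hours, 96-well plates. At the GI50, growth is halved. TGI: concentration producing complete growth inhibition.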

These compounds were tested on M14 melanoma (assay: growth of human tumour cells (NCI), 48 h).

Row | Structure (SMILES) | GI50 | TGI
1 | COc1cc(/C=C\c2cc(OC)c(OC)c(OC)c2)cc(N/C=C\C(=O)c2c[nH]c3ccccc23)c1OC | 2.87 µM | 12.6 µM
2 | CCCCCCCCCCNC(=O)CI | 1.59 µM | 3.2 µM
3 | CCCC/C(=C\C1=C(C)C(=O)C(OC)=C(OC)C1=O)C(=O)O | > 100 µM | > 100 µM
4 | CCc1ccc2c(c1)C(=O)c1c-2n(CCCN=[N+]=[N-])c(=O)c2cc([N+](=O)[O-])ccc12 | > 50 µM | > 50 µM
5 | Cc1cc(N/N=C/c2ccccn2)nc2ccccc12 | 0.413 µM | 5.62 µM
6 | Cn1c(=O)c2c(nc(C(=N)SCC(=O)O)n2C)n(C)c1=O | – | > 100 µM
7 | COc1ccc(-c2nn(-c3cccc(Cl)c3)cc2-c2cc(-c3ccccc3)[nH]c(=O)c2C#N)cc1 | 2.27 µM | 34.6 µM
8 | Nc1cc(Br)c(-c2nnc(CCC(=O)c3nc4ccccc4[nH]3)o2)c(Br)c1 | 17.5 µM | 55.5 µM
9 | CC(C)(C)[Si](C)(C)OC1[C@@H](CNC(=O)NC(=O)CCl)O[C@@H](n2cnc3c(N)ncnc32)[C@H]1O[Si](C)(C)C(C)(C)C (stereo not given in full) | 1.07 µM | 2.49 µM
10 | CC1CC(O)C(=O)C(O[C@@H]2C[C@@H]3CC[C@@H]4[C@H](CC[C@]5(C)C(C6=CC(=O)OC6)CC[C@]45O)[C@@]3(C=O)C[C@H]2O)O1 (stereo not given in full) | – | 0.178 µM
11 | COc1ccc(/C(C)=C(\c2ccc(OCCN3CCCCCC3)cc2)c2ccc(OC(=O)C3CCCCC3)cc2)cc1 | 0.416 µM | 1.3 µM

What follows are compounds tested on HOP-62 NSCLC (assay: growth of human tumour cells (NCI), 48 h).

Row | Structure (SMILES) | GI50 | TGI
12 | COc1cc(/C=C\c2cc(OC)c(OC)c(OC)c2)cc(N/C=C\C(=O)c2c[nH]c3ccccc23)c1OC | 11.6 µM | 28.1 µM
13 | CCCCCCCCCCNC(=O)CI | 1.95 µM | 4.04 µM
14 | CCCC/C(=C\C1=C(C)C(=O)C(OC)=C(OC)C1=O)C(=O)O | > 100 µM | > 100 µM
15 | CCc1ccc2c(c1)C(=O)c1c-2n(CCCN=[N+]=[N-])c(=O)c2cc([N+](=O)[O-])ccc12 | > 50 µM | > 50 µM
16 | Cc1cc(N/N=C/c2ccccn2)nc2ccccc12 | 0.331 µM | 5.06 µM
17 | Cn1c(=O)c2c(nc(C(=N)SCC(=O)O)n2C)n(C)c1=O | – | > 100 µM
18 | COc1ccc(-c2nn(-c3cccc(Cl)c3)cc2-c2cc(-c3ccccc3)[nH]c(=O)c2C#N)cc1 | 1.17 µM | 2.87 µM
19 | Nc1cc(Br)c(-c2nnc(CCC(=O)c3nc4ccccc4[nH]3)o2)c(Br)c1 | 23.7 µM | > 100 µM
20 | CC(C)(C)[Si](C)(C)OC1[C@@H](CNC(=O)NC(=O)CCl)O[C@@H](n2cnc3c(N)ncnc32)[C@H]1O[Si](C)(C)C(C)(C)C (stereo not given in full) | 0.842 µM | 1.69 µM
21 | CC1CC(O)C(=O)C(O[C@@H]2C[C@@H]3CC[C@@H]4[C@H](CC[C@]5(C)C(C6=CC(=O)OC6)CC[C@]45O)[C@@]3(C=O)C[C@H]2O)O1 (stereo not given in full) | – | 0.0492 µM
22 | COc1ccc(/C(C)=C(\c2ccc(OCCN3CCCCCC3)cc2)c2ccc(OC(=O)C3CCCCC3)cc2)cc1 | 1.89 µM | 4.21 µM

What follows are compounds tested on SK-MEL-28 melanoma (assay: growth of human tumour cells (NCI), 48 h).

Row | Structure (SMILES) | GI50 | TGI
23 | COc1cc(/C=C\c2cc(OC)c(OC)c(OC)c2)cc(N/C=C\C(=O)c2c[nH]c3ccccc23)c1OC | 1.86 µM | 3.79 µM
24 | CCCCCCCCCCNC(=O)CI | 1.95 µM | 3.91 µM
25 | CCCC/C(=C\C1=C(C)C(=O)C(OC)=C(OC)C1=O)C(=O)O | > 100 µM | > 100 µM
26 | CCc1ccc2c(c1)C(=O)c1c-2n(CCCN=[N+]=[N-])c(=O)c2cc([N+](=O)[O-])ccc12 | > 50 µM | > 50 µM
27 | Cc1cc(N/N=C/c2ccccn2)nc2ccccc12 | 0.895 µM | 16.8 µM
28 | Cn1c(=O)c2c(nc(C(=N)SCC(=O)O)n2C)n(C)c1=O | – | > 100 µM
29 | COc1ccc(-c2nn(-c3cccc(Cl)c3)cc2-c2cc(-c3ccccc3)[nH]c(=O)c2C#N)cc1 | 2.93 µM | > 50 µM
30 | Nc1cc(Br)c(-c2nnc(CCC(=O)c3nc4ccccc4[nH]3)o2)c(Br)c1 | 6.31 µM | 79 µM
31 | CC(C)(C)[Si](C)(C)OC1[C@@H](CNC(=O)NC(=O)CCl)O[C@@H](n2cnc3c(N)ncnc32)[C@H]1O[Si](C)(C)C(C)(C)C (stereo not given in full) | 1.4 µM | 4.12 µM
32 | CC1CC(O)C(=O)C(O[C@@H]2C[C@@H]3CC[C@@H]4[C@H](CC[C@]5(C)C(C6=CC(=O)OC6)CC[C@]45O)[C@@]3(C=O)C[C@H]2O)O1 (stereo not given in full) | – | 0.329 µM
33 | COc1ccc(/C(C)=C(\c2ccc(OCCN3CCCCCC3)cc2)c2ccc(OC(=O)C3CCCCC3)cc2)cc1 | 1.25 µM | 3.14 µM

What follows are compounds tested on KM12 colon (assay: growth of human tumour cells (NCI), 48 h).

Row | Structure (SMILES) | GI50 | TGI
34 | COc1cc(/C=C\c2cc(OC)c(OC)c(OC)c2)cc(N/C=C\C(=O)c2c[nH]c3ccccc23)c1OC | 3.69 µM | 14.1 µM
35 | CCCCCCCCCCNC(=O)CI | 2.13 µM | 4.29 µM
36 | CCCC/C(=C\C1=C(C)C(=O)C(OC)=C(OC)C1=O)C(=O)O | > 100 µM | > 100 µM
37 | CCc1ccc2c(c1)C(=O)c1c-2n(CCCN=[N+]=[N-])c(=O)c2cc([N+](=O)[O-])ccc12 | > 50 µM | > 50 µM
38 | Cc1cc(N/N=C/c2ccccn2)nc2ccccc12 | 0.508 µM | 14.9 µM
39 | Cn1c(=O)c2c(nc(C(=N)SCC(=O)O)n2C)n(C)c1=O | – | > 100 µM
40 | COc1ccc(-c2nn(-c3cccc(Cl)c3)cc2-c2cc(-c3ccccc3)[nH]c(=O)c2C#N)cc1 | > 50 µM | > 50 µM
41 | Nc1cc(Br)c(-c2nnc(CCC(=O)c3nc4ccccc4[nH]3)o2)c(Br)c1 | 3.71 µM | 18 µM
42 | CC(C)(C)[Si](C)(C)OC1[C@@H](CNC(=O)NC(=O)CCl)O[C@@H](n2cnc3c(N)ncnc32)[C@H]1O[Si](C)(C)C(C)(C)C (stereo not given in full) | 0.897 µM | 1.98 µM
43 | CC1CC(O)C(=O)C(O[C@@H]2C[C@@H]3CC[C@@H]4[C@H](CC[C@]5(C)C(C6=CC(=O)OC6)CC[C@]45O)[C@@]3(C=O)C[C@H]2O)O1 (stereo not given in full) | – | 0.44 µM
44 | COc1ccc(/C(C)=C(\c2ccc(OCCN3CCCCCC3)cc2)c2ccc(OC(=O)C3CCCCC3)cc2)cc1 | 0.854 µM | 3.27 µM

Each compound was assayed on NCI/ADR-RES ovarian (assay: growth of human tumour cells (NCI), 48 h).

Row | Structure (SMILES) | GI50 | TGI
45 | COc1cc(/C=C\c2cc(OC)c(OC)c(OC)c2)cc(N/C=C\C(=O)c2c[nH]c3ccccc23)c1OC | 3.48 µM | 19.3 µM
46 | CCCCCCCCCCNC(=O)CI | 2.32 µM | 5.56 µM
47 | CCCC/C(=C\C1=C(C)C(=O)C(OC)=C(OC)C1=O)C(=O)O | > 100 µM | > 100 µM
48 | CCc1ccc2c(c1)C(=O)c1c-2n(CCCN=[N+]=[N-])c(=O)c2cc([N+](=O)[O-])ccc12 | > 50 µM | > 50 µM
49 | Cc1cc(N/N=C/c2ccccn2)nc2ccccc12 | 0.393 µM | 21.7 µM
50 | Cn1c(=O)c2c(nc(C(=N)SCC(=O)O)n2C)n(C)c1=O | – | > 100 µM
51 | COc1ccc(-c2nn(-c3cccc(Cl)c3)cc2-c2cc(-c3ccccc3)[nH]c(=O)c2C#N)cc1 | 2.14 µM | 36 µM
52 | Nc1cc(Br)c(-c2nnc(CCC(=O)c3nc4ccccc4[nH]3)o2)c(Br)c1 | 22.6 µM | > 100 µM
53 | CC(C)(C)[Si](C)(C)OC1[C@@H](CNC(=O)NC(=O)CCl)O[C@@H](n2cnc3c(N)ncnc32)[C@H]1O[Si](C)(C)C(C)(C)C (stereo not given in full) | 1.18 µM | 3.11 µM
54 | CC1CC(O)C(=O)C(O[C@@H]2C[C@@H]3CC[C@@H]4[C@H](CC[C@]5(C)C(C6=CC(=O)OC6)CC[C@]45O)[C@@]3(C=O)C[C@H]2O)O1 (stereo not given in full) | – | 0.0678 µM
55 | COc1ccc(/C(C)=C(\c2ccc(OCCN3CCCCCC3)cc2)c2ccc(OC(=O)C3CCCCC3)cc2)cc1 | 1.61 µM | 4.78 µM
